# Results published in US6596863B2, “Medical composition containing nitroetheneamine Derivative or salt there of as active constituent” (Ishihara Sangyo Kaisha, Ltd., priority 1998, dated 2003).
# Where two headings read alike, the source gives them in different places.
# Legend:
# [1] = biological target: T1, human MMP-9 (gelatinase B) (Homo sapiens, UniProt P14780); assay: Inhibition activity against human MMP-9 (gelatinase B), fluorescent peptide substrate; format: biochemical
# T1 construct: endogenous in cells; host or cells: HT1080 human fibrosarcoma cells (ATCC CCL-121), PMA-stimulated; enzyme purified from the culture supernatant
# T1 sequence (P14780 107-707 limits assumed): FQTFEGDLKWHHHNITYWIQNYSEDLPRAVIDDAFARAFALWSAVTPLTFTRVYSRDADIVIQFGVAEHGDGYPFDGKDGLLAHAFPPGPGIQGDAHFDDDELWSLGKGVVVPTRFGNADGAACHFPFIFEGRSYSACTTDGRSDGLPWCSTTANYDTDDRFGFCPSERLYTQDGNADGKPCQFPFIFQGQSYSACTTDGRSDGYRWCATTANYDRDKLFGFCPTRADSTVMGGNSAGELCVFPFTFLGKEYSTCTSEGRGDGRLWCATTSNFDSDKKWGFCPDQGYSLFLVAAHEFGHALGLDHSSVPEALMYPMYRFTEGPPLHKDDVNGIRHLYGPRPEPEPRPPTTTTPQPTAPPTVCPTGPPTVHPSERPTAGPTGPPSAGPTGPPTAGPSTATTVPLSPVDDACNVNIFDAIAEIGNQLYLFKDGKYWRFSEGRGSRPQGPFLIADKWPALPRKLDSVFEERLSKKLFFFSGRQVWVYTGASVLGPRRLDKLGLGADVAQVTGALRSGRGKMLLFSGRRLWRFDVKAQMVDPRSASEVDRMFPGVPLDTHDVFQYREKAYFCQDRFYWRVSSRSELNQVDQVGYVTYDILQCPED
# Method: Human MMP-9 (gelatinase B) was purified by the following method from a culture supernatant of HT1080 cells (human fibrosarcoma).
# 2.5×10^6 HT1080 cells (ATCC CCL-121, purchased from Dainippon Seiyaku) were inoculated to a tissue culture dish (Code No. 3020-100, manufactured by Iwaki Glass Co., Ltd.) having a diameter of 10 cm and containing 10 ml of Dulbecco's Modified Eagle Medium (DME, No. D-5648, manufactured by Sigma Co.) containing 10% fetal bovine serum (FBS: REHATUIN™, Code No. 1020-90, manufactured by Intergen Co.) and cultured for 72 hours at 37° C. in an atmosphere comprising 5% of CO2 and 95% of air (Carbon Dioxide Incubator LNA-122D Model, manufactured by Tabai Co.). Then, the medium was changed to 10 ml of a DME culture medium containing no FBS, and phorbol 12-myristate 13-acetate (PMA, code No. 163-114851, manufactured by Wako Pure Chemical Industries, Ltd.) was added so that the final concentration became 10 ng/ml. Under the same conditions, the culturing was carried out for further 20 hours, whereupon the culture supernatant was collected and subjected to cool centrifugation at 4° C. for 5 minutes (cool centrifugal separator, manufactured by Hitachi) to remove cell fragments.
# The pH of a conditioned medium (50 ml) containing MMP-9, thus prepared, was adjusted to 8.0 with 0.2N NaOH. […] Namely, the above-mentioned conditioned medium was passed through DEAE-Sephacel (manufactured by Pharmacia, gel volume: about 35 ml) preliminarily equilibrated with 50 mM Tris-HCl, pH 8.0 (A buffer), and a non-adsorption fraction was collected. Then, it was added to Dye Matrix Gel Green A (manufactured by Amicon Co., gel volume: about 6 ml) preliminarily equilibrated with 50 mM Tris-HCl, pH 7.5/10 MM CaCl2/0.05% Brij 35/0.02% NaN3 (B buffer) and thoroughly washed with the same buffer, whereupon the adsorbed enzyme was eluted with a 1M NaCl-containing B buffer. About 7.5 ml of the eluted fraction was diluted twice with the B buffer and added to Gelatin-Sepharose 4B (manufactured by Pharmacia, gel volume: about 6 ml) preliminarily equilibrated with a 0.5 M NaCl-containing B buffer. It was thoroughly washed with a 0.5M NaCl-containing B buffer, and eluted with the B buffer containing 10% of dimethylsulfoxide (DMSO) and 0.5 M of NaCl. 5.5 ml of the eluted fraction was dialyzed against a 0.1 M NaCl-containing B buffer to obtain 5.2 ml of a purified enzyme solution. The purified MMP-9 standard product was confirmed to have a single band of 92 kDa by a protein staining by SDS electrophoresis, and further, it was confirmed to have an adequate gelatin decomposing activity by gelatinzymography (carried out in accordance with a method by Howard E. W. et al; Journal Biological Chemistry, Vol. 266, 13064-13069, 1991) and to have an adequate substrate decomposing activity by the after-mentioned measurement employing a fluorescent peptide substrate specific to MMP.
# The inhibition activity against human MMP-9 was measured by the following method in accordance with the method by C. G. Knight et al (FEBS Letters, Vol, 296, 263-266, 1992) employing a fluorescent peptide substrate (7-methoxycoumarin-4-yl)Acetyl-Pro-Leu-Gly-Leu-(3-[2,4-dinitrophenyl]—Ala—Arg-NH2, Code 3163-VC, manufactured by Peptide Institute, Inc.
# Further, as the case requires, commercially available human MMP-9 purified enzyme (No. YU-18003, manufactured by Kabushiki Kaisha Yagai Chuo Kenkyusho; used in a final concentration of from 0.0125 to 0.025 unit/ml, No. CC079, manufactured by Chemicon International, Inc.; used in a final concentration of 0.2 μg/ml) was used for the tests. […]
# [2] = compounds of the formula (I), 1st measurement, read-out: MMP-9 inhibition activities IC50, 1st
# [3] = compounds of the formula (I), 2nd measurement, read-out: MMP-9 inhibition activities IC50, 2nd
# [4] = compounds of the formula (I), average of 1st and 2nd (or single measurement), read-out: MMP-9 inhibition activities IC50, Average
# [5] = intermediates, compounds of the formula (IV), 1st measurement, read-out: MMP-9 inhibition activities IC50, 1st
# [6] = intermediates, compounds of the formula (IV), 2nd measurement, read-out: MMP-9 inhibition activities IC50, 2nd
# [7] = intermediates, compounds of the formula (IV), average of 1st and 2nd (or single measurement), read-out: MMP-9 inhibition activities IC50, Average
Structure (SMILES),melting point,"IC50 [1, 2]","IC50 [1, 3]","IC50 [1, 4]","IC50 [1, 5]","IC50 [1, 6]","IC50 [1, 7]"
COc1cccc(NC(=C[N+](=O)[O-])NN)c1 [compound 52],144 °C,21.6 µM,30.2 µM,25.9 µM,–,–,–
CNC(=C[N+](=O)[O-])NNc1cc(C(F)(F)F)cc(OCCOCCOC)n1 [compound 194],128 °C,4.9 µM,8.4 µM,6.7 µM,–,–,–
"NNC(=C[N+](=O)[O-])Nc1ccc(OC(F)(F)F)cc1 [Compound No. 61, N-(1-hydrazino-2-nitroethenyl)-4-trifluoromethoxyaniline]",161 °C (dec.),39.7 µM,42.2 µM,40.9 µM,–,–,–
CNC(=C[N+](=O)[O-])NNc1cc(C(F)(F)F)cc(OCC2CCCO2)n1 (centres unmarked) [compound 129],97 to 99 °C,11.8 µM,6.7 µM,9.3 µM,–,–,–
CNC(=C[N+](=O)[O-])NN=C(C)OC [compound 26],159 °C (dec.),31.9 µM,31.5 µM,31.7 µM,–,–,–
CNC(=C[N+](=O)[O-])NNc1cccc(C)c1 [Compound No. 15],189 °C (dec.),46.8 µM,52.7 µM,49.8 µM,–,–,–
CNC(=C[N+](=O)[O-])NNc1ncc(C(F)(F)F)cc1[N+](=O)[O-] [compound 96],165 to 167 °C (dec.),24.5 µM,21.3 µM,22.9 µM,–,–,–
C=C1C(C)=NN/C(=C\[N+](=O)[O-])N1c1ccccc1 [compound 155],–,24.3 µM,43.5 µM,33.9 µM,–,–,–
CSC(=C[N+](=O)[O-])Nc1ccc([N+](=O)[O-])cc1 [Intermediate 11],180 °C,–,–,–,17.6 µM,15.9 µM,16.8 µM
CCCOc1ccc(NC(=C[N+](=O)[O-])NN)cc1 [compound 71],179 °C (dec.),42.9 µM,37.4 µM,40.2 µM,–,–,–
CNC(=C[N+](=O)[O-])NNc1ccc(C)cc1 [Compound No. 16],186 °C (dec.),49.8 µM,43.9 µM,46.8 µM,–,–,–
CNC(=C[N+](=O)[O-])NNc1nc(OC)cc(OC)n1 [compound 105],166 to 167 °C (dec.),14.2 µM,17 µM,15.6 µM,–,–,–
CNC(=C[N+](=O)[O-])NNc1cc(C(F)(F)F)cc(OCC2CCCCO2)n1 (centres unmarked) [compound 128],93 to 95 °C,19.2 µM,10.3 µM,13 µM,–,–,–
CCOc1ccc(NC(=C[N+](=O)[O-])NN)cc1 [compound 70],198 °C (dec.),42.1 µM,57.1 µM,49.6 µM,–,–,–
CNC(=C[N+](=O)[O-])NNc1ccc(C(F)(F)F)cn1 [Compound No. 19],207 °C (dec.),10.1 µM,13.2 µM,11.7 µM,–,–,–
CNC(=C[N+](=O)[O-])NNc1cccc(Cl)c1 [Compound No. 9],191 °C (dec.),42.2 µM,43.9 µM,43.1 µM,–,–,–
NNC(=C[N+](=O)[O-])Nc1ccc(Cl)cc1 [compound 51],–,27.3 µM,32.1 µM,29.7 µM,–,–,–
CCCCCCCCNC(=C[N+](=O)[O-])NN [compound 46],–,36.2 µM,34.8 µM,35.5 µM,–,–,–
O=[N+]([O-])C=C(NNc1ccccc1)Nc1ccccc1 [Compound No. 2],–,45.1 µM,24.7 µM,34.9 µM,–,–,–
CCCCNC(=C[N+](=O)[O-])NN [compound 85],–,52.8 µM,41.1 µM,47 µM,–,–,–
CNC(=C[N+](=O)[O-])NNc1ccccc1 [compound 84],–,43.4 µM,14.2 µM,28.8 µM,–,–,–
CC(C)NC(=C[N+](=O)[O-])NN [compound 88],–,37.7 µM,57.5 µM,47.6 µM,–,–,–
"CNC(=C[N+](=O)[O-])NN(C)c1ncc(C(F)(F)F)cc1Cl [Compound No. 35, N-methyl-1-(2-methyl-2-(3-chloro-5-trifluoromethyl-2-pyridyl)hydrazino)-2-nitroetheneamine]",–,14.6 µM,22.1 µM,18.4 µM,–,–,–
"CNC(=C[N+](=O)[O-])NN=Cc1ccccn1 [Compound No. 29, 2-pyridinecarbaldehyde 1-methylamino-2-nitroethenylhydrazone]",–,30.8 µM,24.5 µM,27.7 µM,–,–,–
CNC(=C[N+](=O)[O-])NNc1cc(C(F)(F)F)ncn1 [compound 97],–,45.7 µM,35.3 µM,40.5 µM,–,–,–

# Second part, the compound after the results:
melting point,"IC50 [1, 2]","IC50 [1, 3]","IC50 [1, 4]","IC50 [1, 5]","IC50 [1, 6]","IC50 [1, 7]",Structure (SMILES)
128 to 130 °C,–,–,–,38.9 µM,35.3 µM,37.1 µM,COc1ccccc1NC(=C[N+](=O)[O-])SC [Intermediate 25]
–,48.3 µM,44.8 µM,46.6 µM,–,–,–,CNC(=C[N+](=O)[O-])NN [compound 93]
169 to 170 °C (dec.),20.8 µM,26.9 µM,23.9 µM,–,–,–,CNC(=C[N+](=O)[O-])NNS(=O)(=O)c1ccccc1 [compound 109]
–,–,–,–,4.4 µM,–,4.4 µM,"CSC(=C[N+](=O)[O-])NS(C)(=O)=O (single isomer, unassigned) [Intermediate 64]"
–,–,–,–,49.4 µM,37.5 µM,43.5 µM,"CSC(=C[N+](=O)[O-])NS(C)(=O)=O [Intermediate 57, N-(1-(methylthio)-2-nitroethenyl)methanesulfonamide]"
–,–,–,–,11.4 µM,–,11.4 µM,CCS(=O)(=O)NC(=C[N+](=O)[O-])SC [Intermediate 59]
–,15 µM,35 µM,25 µM,–,–,–,CNC(=C[N+](=O)[O-])NNS(C)(=O)=O [compound 108]
–,52.9 µM,19 µM,36 µM,–,–,–,CNNC(=C[N+](=O)[O-])NC [compound 82]
–,–,–,–,33 µM,–,33 µM,CCNC(=C[N+](=O)[O-])SC [Intermediate 6]
–,–,–,–,4.3 µM,–,4.3 µM,CONC(=C[N+](=O)[O-])SC [Intermediate 63]
–,–,–,–,26.9 µM,–,26.9 µM,CNC(=C[N+](=O)[O-])SC [Intermediate 5]
–,–,–,–,29.9 µM,35.6 µM,32.8 µM,CSC(=C[N+](=O)[O-])Nc1ccc(Cl)cc1 [Intermediate 19]
–,–,–,–,26.9 µM,46.6 µM,36.8 µM,CSC(=C[N+](=O)[O-])NC(C)C [Intermediate 10]
–,66.2 µM,14.2 µM,36 µM,–,–,–,CNC(=C[N+](=O)[O-])NN(C)C [compound 83]
–,9.2 µM,–,9.2 µM,–,–,–,"CS(=O)(=O)NC(=C[N+](=O)[O-])NN1CCOCC1 [Compound No. 163, N-(1-(N-morpholino)amino-2-nitroethenyl)methanesulfonamide]"
